Our source for the TGI values is PubChem BioAssay (NCI).

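Values below derive from 48-hour exposures of cells grown in 96-well plates, with endpoints linearly interpolated between the two concentrations bracketing the appropriate inhibition level. TGI: total growth inhibition.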

Some test systems named below: NCI-H460 lung; OVCAR-5 ovarian; A498 renal; OVCAR-4 ovarian; ACHN renal; HCT-116 colon; RPMI-8226 leukemia; CCRF-CEM leukemia; UACC-62 melanoma; EKVX NSCLC; SNB-75 CNS; SF-295 CNS; HCT-15 colon; NCI-H226 lung; T-47D breast; SR leukemia; MDA-MB-231 breast; HCC-2998 colon; PC-3 prostate.
Common to all, as to experiment: NCI tumour cell line growth inhibition, 48 h

With `CCCN1CN(C(C(=O)N[C@@H]2C(=O)N3C2SC(C)(C)C3C(=O)O)c2ccccc2)CSC1=S` (some centres undefined), the TGI in the assay with NCI-H460 lung, in the assay on OVCAR-5 ovarian, in the assay on A498 renal, in the assay on OVCAR-4 ovarian, in the assay on ACHN renal and in the assay on HCT-116 colon was over 100 µM throughout. The TGI with RPMI-8226 leukemia, with CCRF-CEM leukemia, in the assay with UACC-62 melanoma, in the assay on EKVX NSCLC, in the assay with SNB-75 CNS and with SF-295 CNS was over 100 µM in each case. Besides, the TGI in the assay on HCT-15 colon is over 100 µM.
On to `COC1O[C@@H]2CCN3C(=O)[C@@H](OC(=O)c4ccc([N+](=O)[O-])cc4)[C@H]1C23` (some centres undefined), for which the TGI in the assay on NCI-H460 lung, in the assay on OVCAR-5 ovarian, in the assay on A498 renal, in the assay with NCI-H226 lung, in the assay on T-47D breast and with ACHN renal was over 100 µM throughout. The TGI in the assay with HCT-116 colon, with RPMI-8226 leukemia, with CCRF-CEM leukemia, in the assay on UACC-62 melanoma, with SR leukemia and in the assay with MDA-MB-231 breast was over 100 µM in each case. The TGI in the assay with EKVX NSCLC, in the assay with SNB-75 CNS, in the assay with SF-295 CNS and in the assay on HCC-2998 colon was over 100 µM each time.
Turning to `C=CCNC(=S)N1c2ccccc2NC(=O)CC1C` (centres undefined), the TGI with NCI-H460 lung, in the assay on OVCAR-5 ovarian, in the assay with NCI-H226 lung, in the assay on OVCAR-4 ovarian, with ACHN renal and in the assay on HCT-116 colon was over 100 µM throughout. In addition, the TGI with RPMI-8226 leukemia, with CCRF-CEM leukemia, in the assay with UACC-62 melanoma, in the assay with SR leukemia, with EKVX NSCLC and in the assay on SNB-75 CNS was over 100 µM in each case. For the same molecule, the TGI in the assay on SF-295 CNS and in the assay with HCT-15 colon was over 100 µM throughout.
For `CC1(C)C(O)C[C@]23CCC[C@](C)(C[C@@H](O)C12)C3` (some centres undefined), the TGI in the assay on PC-3 prostate, with NCI-H460 lung, in the assay on OVCAR-5 ovarian, with NCI-H226 lung, with OVCAR-4 ovarian and in the assay with ACHN renal was over 100 µM each time. Moreover, the TGI with RPMI-8226 leukemia, in the assay with CCRF-CEM leukemia, in the assay with UACC-62 melanoma, with SR leukemia, in the assay with EKVX NSCLC and with SNB-75 CNS was over 100 µM throughout. In addition, the TGI in the assay with SF-295 CNS and in the assay on HCT-15 colon was over 100 µM in each case.
In the case of `CCOC(=O)c1nc2ccccc2nc1NCc1ccc(OC)cc1`, the TGI in the assay on NCI-H460 lung, in the assay on OVCAR-5 ovarian, in the assay on A498 renal, in the assay with NCI-H226 lung, in the assay with OVCAR-4 ovarian and in the assay with T-47D breast was over 100 µM each time. For the same molecule, the TGI in the assay on ACHN renal, with HCT-116 colon, in the assay with RPMI-8226 leukemia, in the assay on CCRF-CEM leukemia, with UACC-62 melanoma and with SR leukemia was over 100 µM throughout. Moreover, the TGI in the assay with MDA-MB-231 breast, with EKVX NSCLC, in the assay on SNB-75 CNS, in the assay with SF-295 CNS, in the assay with HCT-15 colon and in the assay on HCC-2998 colon was over 100 µM each time.
Take `O=C(Cn1cc(-c2ccccc2)nn1)NC1CCCC1`: the TGI with PC-3 prostate, in the assay with NCI-H460 lung, with OVCAR-5 ovarian, in the assay on NCI-H226 lung, with OVCAR-4 ovarian and in the assay on ACHN renal was over 100 µM in each case. The TGI with HCT-116 colon, in the assay on RPMI-8226 leukemia, in the assay with CCRF-CEM leukemia, in the assay with SR leukemia, in the assay with MDA-MB-231 breast and with EKVX NSCLC was over 100 µM throughout. Besides, the TGI in the assay on SNB-75 CNS, in the assay on SF-295 CNS, in the assay with HCT-15 colon and in the assay with HCC-2998 colon was over 100 µM throughout.
In the case of `Cc1cc2c(cc1Cl)SC(N/N=C(\N)c1ccc(Cl)cc1)=NS2(=O)=O`, the TGI is over 100 µM in the assay on PC-3 prostate; over 100 µM in the assay on NCI-H460 lung; over 100 µM in the assay on OVCAR-5 ovarian; 72.9 µM in the assay with A498 renal; over 100 µM with NCI-H226 lung; over 100 µM in the assay with OVCAR-4 ovarian. In addition, the TGI in the assay with T-47D breast, in the assay with ACHN renal, with HCT-116 colon, in the assay with CCRF-CEM leukemia, in the assay with UACC-62 melanoma and in the assay on MDA-MB-231 breast was over 100 µM throughout. Further, the TGI with EKVX NSCLC, in the assay on SNB-75 CNS, in the assay with SF-295 CNS, in the assay on HCT-15 colon and in the assay on HCC-2998 colon was over 100 µM throughout.
For `CCOC(=O)C(Cc1ccccc1)NC(=O)c1ccc(N=NN(C)C)cc1` (centres undefined), the TGI with NCI-H460 lung, in the assay on OVCAR-5 ovarian, in the assay with A498 renal, in the assay on NCI-H226 lung, with OVCAR-4 ovarian and in the assay on ACHN renal was over 100 µM throughout. For the same molecule, the TGI with HCT-116 colon, with RPMI-8226 leukemia, with CCRF-CEM leukemia, with UACC-62 melanoma, in the assay with SR leukemia and with EKVX NSCLC was over 100 µM each time. Further, the TGI in the assay on SNB-75 CNS, in the assay on SF-295 CNS, with HCT-15 colon and in the assay on HCC-2998 colon was over 100 µM in each case.
As for `CCOc1ccccc1N=Nc1c(-c2ccccc2)nn(C(=O)CC(=O)Nc2cccc(Cl)c2)c1-c1ccccc1`, the TGI in the assay with NCI-H460 lung, in the assay on OVCAR-5 ovarian, in the assay on NCI-H226 lung, in the assay with OVCAR-4 ovarian, in the assay on ACHN renal and with HCT-116 colon was over 100 µM in each case. Also, the TGI in the assay on RPMI-8226 leukemia, in the assay with CCRF-CEM leukemia, in the assay with UACC-62 melanoma, with SR leukemia, with EKVX NSCLC and in the assay on SNB-75 CNS was over 100 µM each time. Moreover, the TGI in the assay with SF-295 CNS and in the assay with HCC-2998 colon was over 100 µM throughout.
With `O=C(NCc1ccccc1)c1cc2cc(O)c(O)cc2cn1`, the TGI with NCI-H460 lung was 91.6 µM; in the assay with OVCAR-5 ovarian it was 79.6 µM; with A498 renal, over 100 µM; in the assay with NCI-H226 lung, 89.9 µM; with OVCAR-4 ovarian, over 100 µM; in the assay on ACHN renal, over 100 µM. The TGI in the assay on HCT-116 colon is over 100 µM; in the assay with RPMI-8226 leukemia it was over 100 µM; in the assay on CCRF-CEM leukemia, over 100 µM; in the assay on UACC-62 melanoma, 44.8 µM; in the assay with SR leukemia it was over 100 µM; with EKVX NSCLC, over 100 µM. Besides, the TGI in the assay on SNB-75 CNS is 84.5 µM; in the assay with SF-295 CNS, over 100 µM; in the assay with HCT-15 colon it was over 100 µM; in the assay with HCC-2998 colon, over 100 µM.
For `O=C(O)C(Cc1c[nH]c2ccccc12)N=Cc1nc(-c2ccccc2)oc1O` (centres undefined), the TGI in the assay with NCI-H460 lung, with OVCAR-5 ovarian, with A498 renal, in the assay with NCI-H226 lung, with OVCAR-4 ovarian and in the assay with ACHN renal was over 100 µM throughout. For the same molecule, the TGI in the assay on HCT-116 colon, in the assay with RPMI-8226 leukemia, in the assay on CCRF-CEM leukemia, with UACC-62 melanoma, in the assay with SR leukemia and in the assay on EKVX NSCLC was over 100 µM throughout. The TGI with SNB-75 CNS, in the assay on SF-295 CNS, in the assay with HCT-15 colon and with HCC-2998 colon was over 100 µM each time.
As to `COc1ccc(CNC2=C(NC(C)=O)C(=O)c3ccccc3C2=O)cc1`, the TGI is over 50 µM with NCI-H460 lung; over 50 µM in the assay with NCI-H226 lung; 15.1 µM in the assay on OVCAR-4 ovarian; 8.69 µM in the assay with ACHN renal; 19.9 µM in the assay with HCT-116 colon; 24.7 µM in the assay with CCRF-CEM leukemia. Further, the TGI was 33.5 µM in the assay on UACC-62 melanoma; over 50 µM with SR leukemia; 47.3 µM in the assay with EKVX NSCLC; 49.5 µM with SNB-75 CNS; over 50 µM in the assay with SF-295 CNS; over 50 µM with HCT-15 colon. In the assay with HCC-2998 colon, this molecule registered a TGI of over 50 µM.
For the molecule `COC(=O)N/N=C(/CCN1CCCC1)CC(c1ccccc1)c1c(O)c2ccccc2oc1=O` (centres undefined), the TGI with NCI-H460 lung, in the assay on OVCAR-5 ovarian, in the assay on A498 renal, with NCI-H226 lung, with OVCAR-4 ovarian and in the assay with ACHN renal was over 100 µM throughout. For the same molecule, the TGI with HCT-116 colon, with RPMI-8226 leukemia, in the assay on CCRF-CEM leukemia, with UACC-62 melanoma, in the assay on SR leukemia and in the assay on EKVX NSCLC was over 100 µM each time. Besides, the TGI in the assay with SNB-75 CNS, in the assay on SF-295 CNS, in the assay on HCT-15 colon and in the assay with HCC-2998 colon was over 100 µM throughout.
Regarding `COc1ccc(NC(=O)C(=O)C2CNC(=O)NC2=O)c(OC)c1` (centres undefined), the TGI with NCI-H460 lung, in the assay with OVCAR-5 ovarian, in the assay on NCI-H226 lung, in the assay with OVCAR-4 ovarian, in the assay with ACHN renal and in the assay on HCT-116 colon was over 100 µM in each case. In addition, the TGI in the assay with RPMI-8226 leukemia, in the assay with CCRF-CEM leukemia, with UACC-62 melanoma, in the assay with SR leukemia, in the assay on EKVX NSCLC and in the assay with SNB-75 CNS was over 100 µM throughout. For the same molecule, the TGI in the assay with SF-295 CNS, in the assay with HCT-15 colon and with HCC-2998 colon was over 100 µM each time.
